Results published in the OPERA property sets (Mansouri et al. 2018).
Converted amounts (≈) assume the structure as drawn.

conditions: not given

Row | SMILES | logP
1 | CC1=C(C(=O)OC(C)C)C(c2cccc([N+](=O)[O-])c2)C(C(=O)OC2CN(C(c3ccccc3)c3ccccc3)C2)=C(N)N1 (stereo not drawn) | 5.18
2 | Clc1ccc(Cl)c(-c2ccccc2Cl)c1 | 5.48
3 | CCCCC[C@H](O)/C=C/[C@@H]1[C@@H](C/C=C\CCCC(=O)O)[C@@H](O)C[C@H]1O | 4.39
4 | OC(CNC1COCCC1Br)Cn1ccnc1 (stereo not drawn) | -0.17
5 | NS(=O)(=O)c1nn2c(=Nc3cccc(Cl)c3)snc2s1 | 3.5
6 | CC(C)(C)C1=CC(=O)C=C(C(C)(C)C)C1=O | 4.42
7 | CC(C)(C)C(=O)OCn1ncc2c(O)ncnc21 | 1.07
8 | CN(C)C(=O)COC(=O)c1ccccc1O | 1.21
9 | CCCCCCCCNC(=O)n1cc(F)c(=O)[nH]c1=O | 3.9
10 | NS(=O)(=O)c1nn2c(=Nc3ccccc3)snc2s1 | 2.57
11 | CCC1(C)CC(=O)NC1=O (stereo not drawn) | 0.38
12 | ClC=C1C2C(Cl)C(Cl)C(C2Cl)C1(CCl)CCl (stereo not drawn) | 5.35
13 | COC1=CC(=O)C(OC)=C(OC)C1=O | 0.22
14 | CN(C)c1ccc(C=NNC(=N)N)cc1 | 0.28
15 | ClCC1CO1 (stereo not drawn) | 0.45

same assay, conditions: 20 °C

Row | SMILES | solubility [mM]
16 | CCSCC | 34.7 (≈ 3.13 mg/mL)
17 | COP(=O)(OC)OC(=CCl)c1cc(Cl)c(Cl)cc1Cl | 0.0301 (≈ 0.011 mg/mL)
18 | CC(C)COC(=O)C(C)C | 5.24 (≈ 0.755 mg/mL)
19 | COc1c(Cl)cc(Cl)cc1Cl | 0.0473 (≈ 0.01 mg/mL)
20 | CC(C)OC(=O)c1ccccc1C(=O)OC(C)C | 1.33 (≈ 0.332 mg/mL)
21 | CN(C)c1ccc(C(=O)c2ccc(N(C)C)cc2)cc1 | 1.49 (≈ 0.4 mg/mL)
22 | CCCCOCC1CO1 (stereo not drawn) | 154 (≈ 20 mg/mL)
23 | CCOP(=S)(OCC)ON=C(C#N)c1ccccc1Cl | 0.00511 (≈ 0.0017 mg/mL)

same assay, conditions: 23 °C

Row | SMILES | solubility [mM]
24 | NC(=O)c1c(Cl)cccc1Cl | 14.4 (≈ 2.73 mg/mL)

same assay, conditions: 23.0 °C

Row | SMILES | log10 OH rate constant (cm³/molecule/s)
25 | COC(OC)OC | -11.2

same assay, conditions: 24 °C

Row | SMILES | solubility [mM]
26 | COc1cc(C=O)cc(Cl)c1O | 1.33 (≈ 0.249 mg/mL)

same assay, conditions: 24.0 °C

Row | SMILES | log10 OH rate constant (cm³/molecule/s)
27 | C[Si]1(C)O[Si](C)(C)O[Si](C)(C)O1 | -12.3
28 | CCOCCC(=O)OCC | -10.6

same assay, conditions: 25 °C

Row | SMILES | solubility [mM]
29 | c1ccc2c(c1)ccc1ccc3ccccc3c12 | 1.51e-05 (≈ 3.45e-06 mg/mL)
30 | O=C(O)Cc1ccc(O)cc1 | 399 (≈ 60.7 mg/mL)
31 | Brc1cc(Br)c(OCCOc2c(Br)cc(Br)cc2Br)c(Br)c1 | 0.000291 (≈ 0.0002 mg/mL)
32 | CC(Br)CBr (stereo not drawn) | 7.15 (≈ 1.44 mg/mL)
33 | CC1(C)C2CC3OC3(C)C1C2 (stereo not drawn) | 2.55 (≈ 0.388 mg/mL)
34 | O=C([O-])CF.[Na+] | 11100
35 | O=C(O)C(Br)Br | 9690 (≈ 2110 mg/mL)
36 | Cc1ccc2c(c1N)C(=O)c1ccccc1C2=O | 0.0014 (≈ 0.000332 mg/mL)
37 | COC | 7660 (≈ 353 mg/mL)
38 | ClC1=C(Cl)C2(Cl)C3C4OC4C(Cl)C3C1(Cl)C2(Cl)Cl (stereo not drawn) | 0.000514 (≈ 0.0002 mg/mL)
39 | CCCCCCCCCl | 0.0329 (≈ 0.00489 mg/mL)
40 | Clc1ccc(C(c2ccccc2Cl)C(Cl)Cl)cc1 (stereo not drawn) | 0.000312 (≈ 0.0001 mg/mL)
41 | CC(C)c1ccccc1 | 0.51 (≈ 0.0613 mg/mL)
42 | Cc1cccc(Oc2ccc([N+](=O)[O-])cc2)c1 | 0.0218 (≈ 0.005 mg/mL)
43 | O=C1C2(Cl)C3(Cl)C4(Cl)C(Cl)(Cl)C5(Cl)C3(Cl)C1(Cl)C5(Cl)C24Cl (stereo not drawn) | 0.0055 (≈ 0.0027 mg/mL)
44 | CCCCCN(CCCCC)CCCCC | 0.0928 (≈ 0.0211 mg/mL)
45 | Clc1cc(Cl)c(Cl)cc1Cl | 0.00276 (≈ 0.000595 mg/mL)
46 | O=Nc1ccc2ccccc2c1O | 2.89 (≈ 0.5 mg/mL)
47 | Nc1nc[nH]n1 | 3330 (≈ 280 mg/mL)
48 | C#CCBr | 125 (≈ 14.9 mg/mL)
49 | CCOC | 832 (≈ 50 mg/mL)
50 | FC(F)(F)C(F)(Cl)Cl | 0.801 (≈ 0.137 mg/mL)
51 | CCCCCOC(=O)CC | 5.62 (≈ 0.81 mg/mL)
52 | Clc1ccc(Cl)c(-c2ccccc2Cl)c1 | 0.00155 (≈ 0.0004 mg/mL)
53 | CCCCN(CCO)CCCC | 23.1 (≈ 4 mg/mL)

same assay, conditions: 25.0 °C

Row | SMILES | log10 OH rate constant (cm³/molecule/s)
54 | O=C1C=CC(=O)c2ccccc21 | -11.5
55 | FC(F)C(F)F | -14.2
56 | C1CN2CCN1CC2 | -10.7
57 | c1ccc(Nc2ccccc2)cc1 | -9.71
58 | FC(F)(F)C(F)(F)C(F)(F)C(F)(F)N(C(F)(F)C(F)(F)C(F)(F)C(F)(F)F)C(F)(F)C(F)(F)C(F)(F)C(F)(F)F | < -16.2
59 | O=CC(F)F | -11.8
60 | CC(C)c1ccc(NC(=O)N(C)C)cc1 | -10.9
61 | OCCOCCO | -10.5
62 | CCCCCBr | -11.4
63 | CCCCOCOCCCC | -10.5
64 | O=CC(F)(F)Cl | -12.1
65 | FC(F)(F)CBr | -13.7
66 | C=C(C)C(CC=O)CCC(C)=O (stereo not drawn) | -9.96
67 | NCC(F)(F)F | -12
68 | CCCCCCBr | -11.2
69 | FC(F)OC(F)(F)C(F)Cl (stereo not drawn) | -13.9
70 | FC(F)(F)CCC(F)(F)F | -14.1
71 | CCC(C)(C)OC | -11.3
72 | COC(F)(F)C(F)F | -12.7

same assay, conditions: 27 °C

Row | SMILES | solubility [mM]
73 | NCCc1c[nH]c2ccc(O)cc12 | 114 (≈ 20 mg/mL)
74 | Cc1c2ccccc2cc2ccc3ccccc3c12 | 0.000272 (≈ 6.6e-05 mg/mL)

same assay, conditions: 27.0 °C

Row | SMILES | log10 OH rate constant (cm³/molecule/s)
75 | Cc1ccc(O)c(O)c1 | -9.81
76 | CC(=O)N(C)C | -10.9
77 | CC1=CC(=O)C=CC1=O | -10.6

same assay, conditions: pH 7.0

Row | SMILES | logD
78 | Cc1nn(-c2cc(NS(C)(=O)=O)c(Cl)cc2Cl)c(=O)n1C(F)F | 0.99
